Test results reported in patent US20120115869A1, “TETRAZOLE DERIVATIVES” (MERCK SERONO S.A., priority 2009, published 2012).

What was measured:
CRTH2 (DP2) = target: T1, CRTH2 (DP2) (Homo sapiens, UniProt Q9Y5Y4); assay: Radioligand binding Scintillation Proximity Assay ([3H]PGD2, hCRTH2-CHO cell membranes); conditions: 1.5 nM [3H]PGD2, hCRTH2-CHO cell membranes, SPA
T1 construct: host or cells: CHO cells
T1 sequence (Q9Y5Y4 1-395): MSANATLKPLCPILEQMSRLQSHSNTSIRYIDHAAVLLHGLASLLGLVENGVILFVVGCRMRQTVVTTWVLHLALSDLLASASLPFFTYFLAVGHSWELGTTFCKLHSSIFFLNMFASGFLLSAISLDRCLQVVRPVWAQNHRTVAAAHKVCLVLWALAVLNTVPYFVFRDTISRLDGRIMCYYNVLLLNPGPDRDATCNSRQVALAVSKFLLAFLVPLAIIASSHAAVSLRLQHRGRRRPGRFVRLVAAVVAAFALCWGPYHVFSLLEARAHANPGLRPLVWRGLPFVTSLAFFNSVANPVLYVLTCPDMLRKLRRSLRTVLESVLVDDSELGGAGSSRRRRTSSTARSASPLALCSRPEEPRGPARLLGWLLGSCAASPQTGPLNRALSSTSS
In short: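 Membranes from CHO cells stably expressing human CRTH2, made by nitrogen cavitation and differential centrifugation. Compounds competed with [3H]PGD2 at 1% DMSO for 90 min with agitation at room temperature. Non-specific binding taken with 10 μM PGD2.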

CRTH2 [1] = target: T2, CRTH2 (Homo sapiens, UniProt Q9Y5Y4); assay: Cellular Dielectric Spectroscopy in CHO-CRTH2 cells; type: cell-based; conditions: for IC50: fixed concentration of PGD2 (EC80), read-out: IC50(μM) (CDS, antagonist); for EC50: agonist activity without PGD2, read-out: EC50(μM) (CDS, partial agonist); for Emax: agonist activity without PGD2, read-out: EMax (CDS, partial agonist)
T2 construct: expressed in transfected cells; host or cells: CHO cells
T2 sequence (Q9Y5Y4 1-395): T1 sequence (Q9Y5Y4 1-395)
Method: Cellular Dielectric Spectroscopy (CDS) is a label-free technology based on the measurement of complex impedance changes (delta Z or dZ). Impedance (Z) is related to the ratio of voltage to current as described by Ohm's law (Z=V/I). In order to measure the changes in impedance that occur in response to receptor stimulation, mammalian cells are seeded onto a custom 96-well microtiter plate that contains electrodes at the bottom of each well Key contributors to the impedance measurements are changes in cell-substrate adherence, changes in cell shape and volume, and changes in cell-cell interactions. These factors individually or collectively affect the flow of current, influencing the magnitude and characteristics of the signal measured. G-protein coupled receptors ligand-induced activity can be measured using this technology and specific G protein coupling can be identified. Activities of reference agonist and antagonist molecules of CRTH2 have been measured using this assay and similar results were obtained compared to different functional assays.
CHO—CRTH2 cells are cultured in HAM's F12 (Lonza, Switzerland) supplemented with 10% foetal calf serum (PAA, Australia) and 400 μg/ml Geneticin. 100000 cells/well are seeded in standard 96 W Microplates (MDS Analytical Technologies) and incubated at 37° C. in 5% CO2 for 24 hours. Cells are washed twice with 135 μl of cell key buffer (Hank's Balanced Salt Solution 1× (HBSS) (Invitrogen) supplemented with 10 mM HEPES pH 7.4 in presence of 1% DMSO). […] Results are expressed as the amplitude between the highest and the lowest signal produced (max-min). Basal and maximum activities are measured, respectively in absence or presence of PGD2 (EC80).

[2] = In vivo pharmacokinetic evaluation in mouse; conditions: female, C57BL/6, mouse, plasma, mice
Method: In order to study the pharmacokinetic (PK) profile of test compounds in vivo, Sprague Dawley male rats or C57BL/6 female mice were dosed intravenously or after oral gavage. For both species, test compounds were dosed in solution at 1 mg/kg for i.v. route (10% ethanol, 10% N,N-dimethylacetamide, 30% propylene glycol, 50% water, v/v) and in suspension at 5 mg/kg (0.5% carboxymethylcellulose suspension, containing 0.25% Tween 20 in water) for oral gavage. PK profile in rat was obtained from 3 animals per dosing route and mouse PK profile was determined from 3 animals for each time points. The volume of administration was 2 mL/kg for i.v. dosing in both species and either 5 mL/kg (rat) or 10 mL/kg (mouse) for oral gavage. Blood samples (100 μL/time point) were collected at 0.083 (5 min), 0.25, 0.5, 1, 4, 7 and 24 hours post-dose for i.v. dosing, and at 0.5, 1, 4, 7 and 24 h for oral dosing, into heparin-Li+ containing tubes. For rats, all blood samples were collected trough a catheter in the carotid artery (placed in the artery the day before the experiment), under light isoflurane anesthesia, and stored on ice until centrifugation and plasma isolation. For mouse, blood samples were collected from intracardiac puncture at sacrifice at each time point and processed as described above for the rat. Plasma samples were stored frozen until analysis (−20° C. to −70° C.). For bioanalysis, samples were processed by protein precipitation (acetonitrile, formic acid 0.1%, addition of 3 volumes) after addition of one internal standard and analysed using a sensitive and selective LC/MS/MS method. An aliquot of the resulting supernatant was subject to LC/MS/MS analysis using a reverse phase column (Waters Xterra, C8, (3.5 μm particle size, 2.1×50 mm) and a short gradient (1 min) from (Solvent A) 85% water, 15% acetonitrile and 0.1% formic acid to (Solvent B) 90% acetonitrile, 10% water and 0.1% formic acid followed by isocratic conditions of Solvent B for 3.5 min at 0.4 mL/min. Column effluent was monitored using a Sciex API 4000 triple quadrupole mass spectrometer with a Turbo V electrospray ion source. Unknown concentrations of test compounds were determined using a calibration curve ranging from 1 to 3000 ng/mL.

CRTH2 [3] = target: T2, CRTH2; assay: [35S]GTPγS binding assay on CHO-CRTH2 cell membranes; type: biochemical; conditions: for Emax: without addition of PGD2, 100% of Emax being the activity measured by the addition of 1 μM of PGD2
Method: Adherent CHO cells expressing hCRTH2 (Euroscreen, Belgium) were cultured in 225 cm^2 cell culture flasks (Corning, USA) in 30 ml of medium. After two rinses of phosphate buffered saline (PBS), cells were harvested in 10 ml of PBS containing 1 mM EDTA, centrifuged at 500×g for 5 min at 4° C. and frozen at −80° C. The pellet was re-suspended in 50 mM Tris-HCl, pH 7.4, 2 mM EDTA, 250 mM Sucrose, containing protease inhibitor cocktail tablets, (Complete EDTA-free, Roche, Germany) and incubated 30 min at 4° C. Cells were disrupted by nitrogen cavitation (Parr Instruments, USA) at 4° C. (800 p.s.i. for 30 min), and centrifuged at 500×g for 10 min at 4° C. Pellet containing nuclei and cellular debris was discarded and supernatant was centrifuged 60 min at 4° C. at 45000×g. Membrane pellet was re-suspended in storage buffer (10 mM HEPES/KOH pH 7.4, 1 mM EDTA, 250 mM sucrose, protease inhibitor cocktail tablets) using Dounce homogenization and frozen in liquid nitrogen, and stored at 80° C.
The [^35S]GTPγS assay measures the increase in guanine nucleotide exchange at G-proteins in cell membranes, resulting from agonist (PGD2) binding to CRTH2. […] Briefly, Compounds of Formula (I) are incubated in 96-well scintillating white polystyrene plates (Perkin Elmer, USA) in a final volume of 200 μl containing 20 mM HEPES/KOH pH 7.4, 3 mM MgCl2, 10 μg/ml Saponin, 5 μM GDP, 75 mM NaCl and 2% of dimethylsulphoxide (DMSO). […] After 60 min incubation at 30° C., reaction is stopped by centrifugation at 700×g, at 4° C. for 10 minutes and supernatant is removed. […] For IC50 determination, increasing concentrations of compounds are incubated in presence of a fixed concentration of PGD2 (EC80). For EC50 measurements, compounds are incubated without addition of PGD2. Basal [^35S]GTPγS activity is determined without addition of any ligands or compounds. 100% [^35S]GTPγS activity is measured by the addition of 1 μM of PGD2.

With C#Cc1cccc(CN(C(=O)CCCC)c2cc(-c3nnn[nH]3)ccc2F)c1 [Example 1, N-(3-ethynylbenzyl)-N-[2-fluoro-5-(1H-tetrazol-5-yl)phenyl]pentanamide] the IC50 (CRTH2 (DP2)) was 12 nM, the IC50 (CRTH2 [1]) was 0.096 µM and the clearance ([2]; iv, i.v. 1 mg/Kg) was 1.67 mL/min/kg. It also gave an AUC ([2]; oral gavage 5 mg/Kg) of 12200 ng·h/mL and a bioavailability ([2]; po 5 mg/Kg vs iv 1 mg/Kg) of 33%.
For CCCCC(=O)N(Cc1cccn1S(=O)(=O)c1ccccc1)c1cc(-c2nnn[nH]2)ccc1F [Example 4, N-[2-fluoro-5-(1H-tetrazol-5-yl)phenyl]-N-{[1-(phenylsulfonyl)-1H-pyrrol-2-yl]methyl}pentanamide], the IC50 (CRTH2 (DP2)) was 51 nM and the IC50 (CRTH2 [1]) was 0.22 µM.
In the case of CCCCC(=O)N(Cc1cccc(OC)c1)c1cc(F)cc(-c2nnn[nH]2)c1 [Example 37, N-[3-fluoro-5-(1H-tetrazol-5-yl)phenyl]-N-(3-methoxybenzyl)pentanamide], the IC50 (CRTH2 (DP2)) is reported as 3.6 nM and the melting point is reported as 118 to 120 °C.
Work on CCCCC(=O)N(Cc1ccc(OC)cc1)c1cc(F)cc(-c2nnn[nH]2)c1 [Example 38, N-[3-fluoro-5-(1H-tetrazol-5-yl)phenyl]-N-(4-methoxybenzyl)pentanamide] yielded an IC50 (CRTH2 (DP2)) of 3.6 nM and a melting point of 122 to 125 °C.
CCCCC(=O)N(Cc1ccc(OC(F)(F)F)cc1)c1cc(Cl)cc(-c2nnn[nH]2)c1 [Example 40, N-[3-chloro-5-(1H-tetrazol-5-yl)phenyl]-N-[4-(trifluoromethoxy)benzyl]pentanamide] showed an IC50 (CRTH2 (DP2)) of 25 nM, an Emax (CRTH2 [3]) of -9.9% and a melting point of 177 to 180 °C.
In the case of CCC(=O)N(Cc1ccc(OC)cc1)c1cc(F)cc(-c2nnn[nH]2)c1 [Example 41, N-[3-fluoro-5-(1H-tetrazol-5-yl)phenyl]-N-(4-methoxybenzyl)propanamide], the IC50 (CRTH2 (DP2)) is reported as 9 nM and the melting point is reported as 158 to 160 °C.
Work on CCCCC(=O)N(Cc1ccc(OC(F)(F)F)c(Cl)c1)c1cc(F)cc(-c2nnn[nH]2)c1 [Example 54, N-[3-chloro-4-(trifluoromethoxy)benzyl]-N-[3-fluoro-5-(1H-tetrazol-5-yl)phenyl]pentanamide] yielded an IC50 (CRTH2 (DP2)) of 15 nM, an Emax (CRTH2 [3]) of -12.6% and a melting point of 137 °C.
CCCC(=O)N(Cc1ccc(OC(F)(F)F)cc1)c1cc(Cl)cc(-c2nnn[nH]2)c1 [Example 55, N-[3-chloro-5-(1H-tetrazol-5-yl)phenyl]-N-[4-(trifluoromethoxy)benzyl]butanamide] showed an IC50 (CRTH2 (DP2)) of 16 nM, an Emax (CRTH2 [3]) of -13.5% and a melting point of 179 °C.
Work on CCC(=O)N(Cc1cccc(-c2ccccc2)c1)c1cccc(-c2nnn[nH]2)c1 [Example 59, N-(biphenyl-3-ylmethyl)-N-[3-(1H-tetrazol-5-yl)phenyl]propanamide] yielded an IC50 (CRTH2 (DP2)) of 230 nM and a melting point of 91 °C.
Compound COCCC(=O)N(Cc1ccc(OC(F)(F)F)cc1)c1cc(Cl)cc(-c2nnn[nH]2)c1 [Example 68, N-[3-chloro-5-(1H-tetrazol-5-yl)phenyl]-3-methoxy-N-[4-(trifluoromethoxy)benzyl]propanamide] has an IC50 (CRTH2 (DP2)) of 7.4 nM and a melting point of 146 to 151 °C.
CCC(=O)N(Cc1ccc(S(C)(=O)=O)cc1)c1cc(F)cc(-c2nnn[nH]2)c1 [Example 78, N-[3-fluoro-5-(1H-tetrazol-5-yl)phenyl]-N-[4-(methylsulfonyl)benzyl]propanamide] showed an IC50 (CRTH2 (DP2)) of 3.5 nM, an Emax (CRTH2 [3]) of 19% and an EC50 (CRTH2 [1]) of 0.0011 µM. It also gave an Emax (CRTH2 [1]) of 42% and an IC50 (CRTH2 [1]) of 0.014 µM.
CC(C)CC(=O)N(Cc1ccc(S(C)(=O)=O)cc1)c1cc(F)cc(-c2nnn[nH]2)c1 [Example 104, N-[3-fluoro-5-(1H-tetrazol-5-yl)phenyl]-3-methyl-N-[4-(methylsulfonyl)benzyl]butanamide] gave an IC50 (CRTH2 (DP2)) of 3.7 nM, an EC50 (CRTH2 [1]) of 0.0011 µM and an Emax (CRTH2 [1]) of 27%.
For CS(=O)(=O)c1ccc(CN(C(=O)C2CCCC2)c2cc(F)cc(-c3nnn[nH]3)c2)cc1 [Example 105, N-[3-fluoro-5-(1H-tetrazol-5-yl)phenyl]-N-[4-(methylsulfonyl)benzyl]cyclopentanecarboxamide], the IC50 (CRTH2 (DP2)) was 6.2 nM, the EC50 (CRTH2 [1]) was 0.0024 µM and the Emax (CRTH2 [1]) was 22%.
CS(=O)(=O)c1ccc(CN(C(=O)c2ccccc2)c2cc(F)cc(-c3nnn[nH]3)c2)cc1 [Example 108, N-[3-fluoro-5-(1H-tetrazol-5-yl)phenyl]-N-[4-(methylsulfonyl)benzyl]benzamide] gave an IC50 (CRTH2 (DP2)) of 2.6 nM, an IC50 (CRTH2 [3]; in presence of a fixed concentration of PGD2 (EC80), read-out: IC50 ([35S]GTPγS, antagonist)) of 22.4 nM and an Emax (CRTH2 [3]) of -10.1%. It also gave an IC50 (CRTH2 [1]) of 0.049 µM.
Compound CS(=O)(=O)c1ccc(CN(C(=O)Cc2ccccc2)c2cc(F)cc(-c3nnn[nH]3)c2)cc1 [Example 109, N-[3-fluoro-5-(1H-tetrazol-5-yl)phenyl]-N-[4-(methylsulfonyl)benzyl]-2-phenylacetamide] has an IC50 (CRTH2 (DP2)) of 1 nM, an EC50 (CRTH2 [1]) of 0.0012 µM and an Emax (CRTH2 [1]) of 32%.
